From BindingDB's records for doi:10.1021/jm0491492 (Uppsala University, 2005)
pKi: −log10 of the molar value.

Biological target: Type-2 angiotensin II receptor (Sus scrofa)
Test: Displacement of [125I]-Ang II from angiotensin II receptor type 2 in pig uterus myometrium

| Structure (SMILES) | pKi |
| --- | --- |
| CC(C)[C@H](NC(=O)[C@H](C)NC(=O)[C@@H](N)CC(=O)O)C(=O)Nc1cccc2c1N[C@@H](Cc1ccc(O)cc1)C(=O)N(CC(=O)N[C@@H](Cc1cnc[nH]1)C(=O)N1CCC[C@H]1C(=O)N[C@@H](Cc1ccccc1)C(=O)O)C2 [(3S)-3-amino-3-{[(1S)-1-{[(1S)-1-{[(2S)-4-({[(2S)-1-[(2S)-2-{[(1S)-1-carboxy-2-phenylethyl]carbamoyl}pyrrolidin-1-yl]-3-(1H-imidazol-4-yl)-1-oxopropan-2-yl]carbamoyl}methyl)-2-[(4-hydroxyphenyl)methyl]-3-oxo-2,3,4,5-tetrahydro-1H-1,4-benzodiazepin-9-yl]carbamoyl}-2-methylpropyl]carbamoyl}ethyl]carbamoyl}propanoic acid] | 8.03 |
| N=C(N)NCCC[C@H](NC(=O)[C@@H](N)CC(=O)O)C(=O)Nc1cccc2c1N[C@@H](Cc1ccc(O)cc1)C(=O)N(CC(=O)N[C@@H](Cc1cnc[nH]1)C(=O)N1CCC[C@H]1C(=O)N[C@@H](Cc1ccccc1)C(=O)O)C2 [(3S)-3-amino-3-{[(1S)-1-{[(2S)-4-({[(2S)-1-[(2S)-2-{[(1S)-1-carboxy-2-phenylethyl]carbamoyl}pyrrolidin-1-yl]-3-(1H-imidazol-4-yl)-1-oxopropan-2-yl]carbamoyl}methyl)-2-[(4-hydroxyphenyl)methyl]-3-oxo-2,3,4,5-tetrahydro-1H-1,4-benzodiazepin-9-yl]carbamoyl}-4-[(diaminomethylidene)amino]butyl]carbamoyl}propanoic acid] | 8.55 |
| CC(C)[C@H](NC(=O)[C@H](CCCNC(=N)N)NC(=O)[C@@H](N)CC(=O)O)C(=O)Nc1cccc2c1N[C@@H](Cc1ccc(O)cc1)C(=O)N(CC(=O)N[C@@H](Cc1cnc[nH]1)C(=O)N1CCC[C@H]1C(=O)N[C@@H](Cc1ccccc1)C(=O)O)C2 [(3S)-3-amino-3-{[(1S)-1-{[(1S)-1-{[(2S)-4-({[(2S)-1-[(2S)-2-{[(1S)-1-carboxy-2-phenylethyl]carbamoyl}pyrrolidin-1-yl]-3-(1H-imidazol-4-yl)-1-oxopropan-2-yl]carbamoyl}methyl)-2-[(4-hydroxyphenyl)methyl]-3-oxo-2,3,4,5-tetrahydro-1H-1,4-benzodiazepin-9-yl]carbamoyl}-2-methylpropyl]carbamoyl}-4-[(diaminomethylidene)amino]butyl]carbamoyl}propanoic acid] | 9.10 |
